Source: patent US5389641A, “Fused heterocyclic compounds, having angiotensin II antagonistic activity” (Takeda Chemical Industries, Ltd., priority 1991, dated 1995)

What was measured:
AII receptor = target: T1, AII receptor (Bos taurus, UniProt P25104); assay: Inhibition of binding of [125I]-angiotensinII to AII receptor (radioreceptor assay); conditions: 1 h, membrane fraction from bovine adrenal cortex, room temperature, one hour; for inhibition at 1 µM: 10^-6 (M); for inhibition at 0.1 µM: 10^-7 (M)
T1 construct: An AII receptor membrane fraction was prepared from bovine adrenal cortex; from tissue; host or cells: bovine adrenal cortex, membrane fraction
T1 sequence (P25104 1-359): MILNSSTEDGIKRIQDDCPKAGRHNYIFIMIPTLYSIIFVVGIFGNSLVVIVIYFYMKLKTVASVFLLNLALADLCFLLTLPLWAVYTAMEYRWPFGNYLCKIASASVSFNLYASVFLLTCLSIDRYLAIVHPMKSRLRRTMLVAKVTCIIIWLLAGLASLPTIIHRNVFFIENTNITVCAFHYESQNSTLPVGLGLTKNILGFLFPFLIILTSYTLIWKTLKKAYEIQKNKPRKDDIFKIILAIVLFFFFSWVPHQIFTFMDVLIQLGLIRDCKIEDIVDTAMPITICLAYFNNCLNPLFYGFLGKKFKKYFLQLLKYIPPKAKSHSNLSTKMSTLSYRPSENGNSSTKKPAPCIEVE
Description: An experiment of inhibition on the binding of angiotensinII (AII) to AII receptor was conducted by modifying the method of Douglas et al. [Endocrinology, 102, 685-696 (1978)]. An AII receptor membrane fraction was prepared from bovine adrenal cortex.
The compound of the present invention (10 ^-6 M or 10^-7 M) and [^125 I]-angiotensinII ([^125 I]-AII) (1.85 kBq/50 μl) were added to the receptor membrane fraction, and the mixture was incubated at room temperature for one hour. The receptor-bound and free [^125 I]-AII were separated through a filter (Whatman GF/B filter), and the radioactivity of [^125 I]-AII bound to the receptor was measured.

[1] = reported in literature; cited from earlier work

inhibition at 1 µM (AII receptor) | inhibition at 0.1 µM (AII receptor) | SMILES | angiotensinII antagonist activity [1]
92% | 63% | CCCCc1nc2c(C)cnc(C(=O)O)c2n1Cc1ccc(-c2ccccc2-c2nnn[nH]2)cc1 [Example 1, 2-Butyl-7-methyl-3-[[2'-(1H-tetrazol-5-yl)biphenyl-4-yl]methyl]-3H-imidazo[4,5-c]pyridine-4-carboxylic acid] | 
92% | 54% | CCCc1nc2c(C)cnc(C(=O)O)c2n1Cc1ccc(-c2ccccc2-c2nnn[nH]2)cc1 [Example 2, 2-Propyl-7-methyl-3-[[2'-(1H-tetrazol-5-yl)biphenyl-4-yl]methyl]-3H-imidazo[4,5-c]pyridine-4-carboxylic acid] | 
49% | 12% | CCc1cc2c(=O)c3cccc(C(=O)O)c3n(Cc3ccc(-c4ccccc4-c4nnn[nH]4)cc3)c2s1 [Example 3, 2-Ethyl-4-oxo-9-[[2'-(1H-tetrazol-5-yl)biphenyl-4-yl]methyl]-4,9-dihydrothieno[2,3-b]quinoline-8-carboxylic acid] | 
91% | 60% | CCCc1cn2ncc(C(=O)O)c2n1Cc1ccc(-c2ccccc2-c2nn[nH]n2)cc1 [Example 6, 5-Propyl-4-[[2'-(1H-tetrazol-5-yl)biphenyl-4-yl]methyl]-imidazo[1,2-b]pyrazol-3-carboxylic acid] | 
67% | 27% | CCCCc1nc2cccc(C(=O)O)c2n1Cc1ccc(-n2cccc2-c2nnn[nH]2)cc1 [Example 7, 2-Butyl-1-[[4-[2-(1H-tetrazol-5-yl)-1-pyrrolyl]phenyl]methyl]benzimidazole-7-carboxylic acid] | 
86% | 54% | CCCc1nn2ncc(C(=O)O)c2n1Cc1ccc(-c2ccccc2-c2nnn[nH]2)cc1 [Example 11, 2-Propyl-1-[[2'-(1H-tetrazol-5-yl)biphenyl-4-yl]methyl]-1H-pyrazolo[1,5-b][1,2,4]triazole-7-carboxylic acid] | 
49% | 20% | CCOc1nc(C(=O)O)c2c(n1)nc(OCC)n2Cc1ccc(-c2ccccc2-c2nnn[nH]2)cc1 [Example 13, 2,8-Diethoxy-7-[[2'-(1H-tetrazol-5-yl)biphenyl-4-yl]methyl]purine-6-carboxylic acid] | 
69% | 31% | CCc1cc2c(=O)c3cccc(C(=O)OCOC(=O)C(C)(C)C)c3n(Cc3ccc(-c4ccccc4-c4nnn[nH]4)cc3)c2s1 [Example 14, Pivaloyloxymethyl 2-ethyl-4-oxo-9-[[2'-(1H-tetrazol-5-yl)biphenyl-4-yl]methyl]-4,9-dihydrothieno[2,3-b]quinoline-8-carboxylate] | 
19% | 1% | CCc1cc2c(=O)c3cccc(C(=O)OC(C)OC(=O)OC4CCCCC4)c3n(Cc3ccc(-c4ccccc4-c4nnn[nH]4)cc3)c2s1 (stereo not drawn) [Example 15, 1-(Cyclohexyloxycarbonyloxy)ethyl 2-ethyl-4-oxo-9-[[2'-(1H-tetrazol-5-yl)biphenyl-4-yl]methyl]-4,9-dihydrothieno[2,3-b]quinoline-8-carboxylate] | 
39% | 0% | CCCc1cc2cccc(C(=O)O)c2n1Cc1ccc(-c2ccccc2-c2nnn[nH]2)cc1 [Example 17, 2-Propyl-1-[[2'-(1H-tetrazol-5-yl)biphenyl-4-yl]methyl]indole-7-carboxylic acid] | 
61% | 21% | CCCc1nn2ncc(C(=O)OCOC(=O)C(C)(C)C)c2n1Cc1ccc(-c2ccccc2-c2nnn[nH]2)cc1 [Example 20, Pivaloyloxymethyl 2-propyl-1-[[2'-(1H-tetrazol-5-yl)biphenyl-4-yl]methyl]-1H-pyrazolo[1,5-b][1,2,4]triazole-7-carboxylate] | 
70% | 26% | CCCCc1nc2cccc(C(=O)O)c2n1Cc1ccc(-c2ccccc2-c2nnn[nH]2)nc1 [Example 21, 2-Butyl-1-[[2-[2-(1H-tetrazol-5-yl)phenyl]pyridin-5-yl]methyl]benzimidazole-7-carboxylic acid] | 
80% | 39% | CCCCc1nc2cccc(C(=O)O)c2n1Cc1ccc2c(=O)n(-c3ccccc3-c3nnn[nH]3)cnc2c1 [Example 26, 2-Butyl-1-[[4-oxo-3-[2-(1H-tetrazol-5-yl)phenyl]-3,4-dihydroquinazolin-7-yl]methyl]benzimidazole-7-carboxylic acid] | 
 |  | CNCC(=O)N[C@@H](CCCN=C(N)N)C(=O)N[C@H](C(=O)N[C@@H](Cc1ccc(O)cc1)C(=O)N[C@H](C(=O)N[C@@H](Cc1cnc[nH]1)C(=O)N1CCC[C@H]1C(=O)N[C@@H](C)C(=O)O)C(C)C)C(C)C [saralasin] | potent
